Measurements taken from paper PMC6823370, “A novel nucleoside rescue metabolic pathway may be responsible for therapeutic effect of orally administered cordycepin” (Scientific Reports, 2019).
Values after ≈ are worked out from the molar mass of the structure shown.

Tests used:
Caco-2 permeability = assay type: in vitro ADME; conditions: human, Caco-2; read-out: apparent permeability coefficient (Papp), A to B
Procedure: (§1) Caco-2 permeability assays were conducted following previously reported methods with 21-day maintenance on the Corning 24-well Transwell® (Fisher Scientific, Loughborough, UK)[48]. […] Both directions of apical-to-basolateral and basolateral-to-apical were tested. […] The experiments were conducted in triplicates.
(§2) Samples from Caco-2 permeability, in vitro determination of CordyTP formation and in vivo experiments were subjected to protein precipitation followed by LC-MS/MS analysis. To 50 µL of rat plasma sample, 150 µL of internal standard solution (1.67 µg/mL 2-chloroadenosine in methanol) was added. The samples were then vortex-mixed for 10 s and were centrifuged for 3 min at 17949 g. Supernatant (20 µL) was collected and diluted 10-fold with DDW before injection into the LC-MS/MS for analysis of cordycepin and 3′-deoxyinosine. For analysis of CordyTP, the supernatant was filtered using filter tubes mentioned above and injected without dilution. Tissue samples were homogenised using Bullet Blender Gold (Next Advance, Inc., Troy, NY) in methanol (1:3 w/v) and centrifuged for 3 min at 17949 g. The supernatant was filtered and injected for analysis of CordyTP or diluted 10-fold with DDW for analysis of cordycepin and 3′-deoxyinosine. The LC-MS/MS system was a API4000 QTrap (AB Sciex, Warrington, UK) equipped with HPLC setup of SCL10Avp controller, LC10ADvp pump and SILHTC autosampler (Shimadzu, Milton Keynes, UK). Three different methods were utilised for each compound and multiple reaction monitoring parameters of the MS/MS conditions are shown in Table 1. The HPLC conditions including stationary phases and specific mass spectrometry parameters are shown in Supplementary Information 2. The LC-MS/MS method for cordycepin was fully validated in terms of accuracy, precision, sensitivity, selectivity, linearity and sample storage stability in accordance with the Guidance for Industry, Bioanalytical Method Validation, (2018) published by the US FDA (refer to Supplementary Information 3 for validation procedures and results)[53].

Caco-2 cells = assay: Caco-2 permeability; assay type: in vitro ADME
Procedure: as §1, §2

RAW264.7 cells = assay: Repression of inflammatory gene expression in LPS-stimulated RAW264.7 cells (qPCR); assay type: cell-based, mouse; conditions: 20 µM, 1 h prior to LPS stimulation
Procedure: RAW 264.7 mouse macrophage cells were cultured in DMEM supplemented with 10% FBS. Prior to experiments, cells were washed with PBS and cells were maintained in DMEM with 0.5% FBS or 10% FBS for 24 h. LPS was added at 1 µg/mL, 1 h before compound treatment, when needed. When the cells were analysed for concentration levels of cordycepin, 3′-deoxyinosine and CordyTP, the cells were washed twice with PBS. The cells were then treated with methanol and mixed vigorously before the mixture was harvested. The mixture was filtered using filter tubes mentioned above and the filtrate was analysed by liquid chromatography coupled with tandem mass spectrometry (LC-MS/MS). For determination of relative mRNA levels, RNA was isolated from the lysates using an RNA isolation kit, following manufacturer’s protocol (Promega, Madison, WI, cat no. Z6012). RNA was reverse transcribed to cDNA using SuperScript™ III reverse transcriptase (Invitrogen, Carlsbad, CA). Quantitative polymerase chain reaction (qPCR), was performed with Qiagen Rotor-Gene Q qPCR machine (Qiagen, Hilden, Germany) using Promega SYBR Green GoTaq® qPCR master mix (Promega).
Figure 3 Repression effect on inflammatory gene expression. (a) NBTI or ITu treatment prior to cordycepin treatment suppresses effect of cordycepin. RAW264.7 cells were treated with 10 µM NBTI, 100 nM ITu or DMSO (Ctrl, control) 15 min prior to cordycepin treatment. The cells were stimulated with LPS 1 h after cordycepin treatment (mean ± SD, n = 3). **p < 0.01; ***p < 0.001 compared to DMSO treatment (labelled as Ctrl). (b) 3′-deoxyinosine exerts same repression effect as cordycepin, although to a lesser degree. RAW264.7 cells were treated with 20 µM cordycepin, 20 µM 3′-deoxyinosine (3DI) or DMSO (Ctrl, control) for 1 h prior to LPS stimulation (mean ± SD, n = 3). **p < 0.01; ***p < 0.001 compared to without compound treatment (labelled as LPS).

[1] = parameters: method as in PMID 28560504; conditions: previously reported; cited from earlier work

Nc1ncnc2c1ncn2[C@@H]1O[C@H](CO)C[C@H]1O [cordycepin, 3′-deoxyadenosine]
Papp A→B at 120 min, 200 µM (Caco-2 permeability): 0.11 ± 0.01 ×10⁻⁶ cm/s
cordycepin remaining in donor chamber at 120 min (Caco-2 cells; applied to apical side with pentostatin): remained stable
cordycepin remaining in donor chamber at 120 min (Caco-2 cells; applied to apical side without pentostatin): significantly degraded
cordycepin remaining in donor chamber at 120 min (Caco-2 cells; applied to basolateral side without pentostatin): remained stable
permeation of cordycepin (Caco-2 cells; cordycepin 200 µM without pentostatin, A to B and B to A): not detected
effect on expression of inflammatory genes (RAW264.7 cells): inhibitory effect
solubility in water [1]: 5000 ± 100 µg/mL (≈ 19.9 mM)
